Measurements published in ChEMBL document CHEMBL1201862, “PubChem BioAssay data set” (2004).
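Step 1: Grow cells in 96-well plates. Step 2: Expose to compound for 48 hours at 5 concentrations. Step 3: Interpolate endpoints linearly; if unreached, use highest concentration. GI50 is the concentration that inhibits growth by half.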 Active and inactive are the calls of the source. No stated cut-off is given here; in the data, active = GI50 up to about 1.1 µM and inactive = higher.

Key:
Test in all cases: inhibition of tumour cell growth, NCI panel, 48 h
[1] = test system: 786-0
[2] = test system: BT-549
[3] = test system: COLO 205
[4] = test system: DU-145
[5] = test system: HCT-15
[6] = test system: Hs-578T
[7] = test system: KM12
[8] = test system: M14
[9] = test system: NCI-H226
[10] = test system: NCI-H460
[11] = test system: NCI/ADR-RES
[12] = test system: OVCAR-8
[13] = test system: PC-3
[14] = test system: SF-295
[15] = test system: SK-MEL-2
[16] = test system: SK-MEL-5
[17] = test system: SK-OV-3
[18] = test system: SNB-19
[19] = test system: SR
[20] = test system: TK-10

CN(C)CCNC(=O)c1cccc2c(NC(CCCNC(=N)N)C(=O)O)c3ccccc3[n+](C)c12 (stereo not given)
GI50 [1]: 71 µM (inactive) | GI50 [2]: > 100 µM (inactive) | GI50 [3]: 38.9 µM (inactive) | GI50 [4]: 70.1 µM (inactive) | GI50 [5]: > 100 µM | GI50 [6]: > 100 µM (inactive) | GI50 [7]: > 100 µM (inactive) | GI50 [8]: > 100 µM (inactive) | GI50 [9]: 39.5 µM (inactive) | GI50 [10]: 49.3 µM (inactive) | GI50 [11]: 27.7 µM (inactive) | GI50 [12]: 92 µM (inactive) | GI50 [13]: 79.8 µM (inactive) | GI50 [14]: > 100 µM (inactive) | GI50 [15]: > 100 µM (inactive) | GI50 [16]: 40.1 µM (inactive) | GI50 [17]: > 100 µM (inactive) | GI50 [18]: > 100 µM (inactive) | GI50 [19]: > 100 µM (inactive) | GI50 [20]: > 100 µM (inactive)

COc1cc([C@@H]2c3cc4c(cc3[C@@H](/N=C/c3ccc(C(=O)O[C@H]5C[C@H]6OC[C@@]6(OC(C)=O)[C@H]6[C@H](OC(=O)c7ccccc7)[C@]7(O)C[C@H](OC(=O)[C@H](OC(=O)c8ccc(/C=N/[C@@H]9c%10cc%11c(cc%10[C@@H](c%10cc(OC)c(O)c(OC)c%10)[C@H]%10C(=O)OC[C@@H]%109)OCO%11)cc8)[C@@H](NC(=O)c8ccccc8)c8ccccc8)C(C)=C([C@@H](OC(C)=O)C(=O)[C@]56C)C7(C)C)cc3)C3COC(=O)C32)OCO4)cc(C)c1O (stereo not given in full)
GI50 [1]: 7.55 µM (inactive) | GI50 [2]: 49.7 µM (inactive) | GI50 [3]: 19.6 µM (inactive) | GI50 [4]: 24.5 µM (inactive) | GI50 [5]: 19.2 µM | GI50 [6]: > 46 µM (inactive) | GI50 [7]: 22.3 µM (inactive) | GI50 [8]: 6.49 µM (inactive) | GI50 [9]: 10.9 µM (inactive) | GI50 [10]: 15.3 µM (inactive) | GI50 [11]: 15.2 µM (inactive) | GI50 [12]: 17.9 µM (inactive) | GI50 [13]: 6.58 µM (inactive) | GI50 [14]: 5.07 µM (inactive) | GI50 [15]: 13.7 µM (inactive) | GI50 [16]: 5.28 µM (inactive) | GI50 [17]: 9.2 µM (inactive) | GI50 [18]: 17.5 µM (inactive) | GI50 [19]: 8.02 µM (inactive) | GI50 [20]: > 50 µM (inactive)

c1ccc(/C(=N\Nc2nc3ccccc3[nH]2)c2ccccn2)cc1
GI50 [1]: 0.31 µM (active) | GI50 [2]: 1.19 µM (inactive) | GI50 [3]: < 0.0207 µM (active) | GI50 [4]: 2.13 µM (inactive) | GI50 [5]: 0.277 µM | GI50 [6]: 5.5 µM (inactive) | GI50 [7]: 0.735 µM (active) | GI50 [8]: 0.361 µM (active) | GI50 [9]: 0.256 µM (active) | GI50 [10]: 0.617 µM (active) | GI50 [11]: 0.284 µM (active) | GI50 [12]: 0.254 µM (active) | GI50 [13]: 0.182 µM (active) | GI50 [14]: 1.69 µM (inactive) | GI50 [15]: 4.09 µM (inactive) | GI50 [16]: 0.427 µM (active) | GI50 [17]: 0.342 µM (active) | GI50 [18]: 1.22 µM (inactive) | GI50 [19]: 0.348 µM (active) | GI50 [20]: 0.314 µM (active)

C#CCn1c(=O)ccn(/C(=C/C(=O)OCC)C(=O)OCC)c1=O
GI50 [1]: 3.41 µM (inactive) | GI50 [2]: 10.5 µM (inactive) | GI50 [3]: 1.81 µM (inactive) | GI50 [4]: 13.8 µM (inactive) | GI50 [5]: 1.06 µM | GI50 [6]: 18.7 µM (inactive) | GI50 [7]: 17.4 µM (inactive) | GI50 [8]: 4.05 µM (inactive) | GI50 [9]: 18.6 µM (inactive) | GI50 [10]: 2.69 µM (inactive) | GI50 [11]: 3.7 µM (inactive) | GI50 [12]: 2.2 µM (inactive) | GI50 [13]: 14.2 µM (inactive) | GI50 [14]: 24.6 µM (inactive) | GI50 [15]: 15.2 µM (inactive) | GI50 [16]: 14.5 µM (inactive) | GI50 [17]: 35.2 µM (inactive) | GI50 [18]: 19 µM (inactive) | GI50 [19]: 3.45 µM (inactive) | GI50 [20]: 1.77 µM (inactive)

COC(=O)c1csc([C@@H](OC(=O)[C@H](C)[C@H](CCCC(C)(Cl)Cl)OC(=O)c2csc([C@H](O)CO)n2)C(C)C)n1
GI50 [1]: 14 µM (inactive) | GI50 [2]: 17.1 µM (inactive) | GI50 [3]: 17.8 µM (inactive) | GI50 [4]: 12.3 µM (inactive) | GI50 [5]: 16.4 µM | GI50 [6]: 2.11 µM (inactive) | GI50 [7]: 15.7 µM (inactive) | GI50 [8]: 17.8 µM (inactive) | GI50 [9]: 19.2 µM (inactive) | GI50 [10]: 9.89 µM (inactive) | GI50 [11]: 18.3 µM (inactive) | GI50 [12]: 4.61 µM (inactive) | GI50 [13]: 13.6 µM (inactive) | GI50 [14]: 15.7 µM (inactive) | GI50 [15]: 15.3 µM (inactive) | GI50 [16]: 17.9 µM (inactive) | GI50 [17]: 16.2 µM (inactive) | GI50 [18]: 13.6 µM (inactive) | GI50 [19]: 13.7 µM (inactive) | GI50 [20]: 12.4 µM (inactive)

O=c1ccc2cc(O)c(O)cc2o1 [ESCULETIN]
GI50 [1]: > 100 µM (inactive) | GI50 [2]: > 100 µM (inactive) | GI50 [3]: > 100 µM (inactive) | GI50 [4]: > 100 µM (inactive) | GI50 [5]: > 100 µM | GI50 [6]: > 100 µM (inactive) | GI50 [7]: > 100 µM (inactive) | GI50 [8]: > 100 µM (inactive) | GI50 [9]: > 100 µM (inactive) | GI50 [10]: > 100 µM (inactive) | GI50 [11]: > 100 µM (inactive) | GI50 [12]: > 100 µM (inactive) | GI50 [13]: > 92.9 µM (inactive) | GI50 [14]: > 100 µM (inactive) | GI50 [15]: > 100 µM (inactive) | GI50 [16]: > 100 µM (inactive) | GI50 [17]: > 100 µM (inactive) | GI50 [18]: > 100 µM (inactive) | GI50 [19]: > 100 µM (inactive) | GI50 [20]: > 100 µM (inactive)

COc1cc(C2c3cc4c(cc3[C@@H](Nc3ccc(C#N)cc3)C3COC(=O)[C@H]23)OCO4)cc(OC)c1O (stereo not given in full)
GI50 [1]: 0.724 µM (active) | GI50 [2]: 7.74 µM (inactive) | GI50 [3]: 6.38 µM (inactive) | GI50 [4]: 0.273 µM (active) | GI50 [5]: 2.31 µM | GI50 [6]: 5.09 µM (inactive) | GI50 [7]: 5.33 µM (inactive) | GI50 [8]: 1.35 µM (inactive) | GI50 [9]: 0.665 µM (active) | GI50 [10]: 0.038 µM (active) | GI50 [11]: 3.98 µM (inactive) | GI50 [12]: 0.975 µM (active) | GI50 [13]: 9.82 µM (inactive) | GI50 [14]: 0.767 µM (active) | GI50 [15]: 14.6 µM (inactive) | GI50 [16]: 0.661 µM (active) | GI50 [17]: 1.63 µM (inactive) | GI50 [18]: 1.39 µM (inactive) | GI50 [19]: 0.261 µM (active) | GI50 [20]: 7.82 µM (inactive)

Nc1c2c(nc3ccccc13)-c1ccccc1NCCC2
GI50 [1]: 16.7 µM (inactive) | GI50 [2]: 50.5 µM (inactive) | GI50 [3]: 16.8 µM (inactive) | GI50 [4]: 59.7 µM (inactive) | GI50 [5]: 35.6 µM | GI50 [6]: 56.5 µM (inactive) | GI50 [7]: 35.2 µM (inactive) | GI50 [8]: 17.4 µM (inactive) | GI50 [9]: 25.4 µM (inactive) | GI50 [10]: 15.3 µM (inactive) | GI50 [11]: 68.2 µM (inactive) | GI50 [12]: 42.2 µM (inactive) | GI50 [13]: 20.4 µM (inactive) | GI50 [14]: 17.7 µM (inactive) | GI50 [15]: 18 µM (inactive) | GI50 [16]: 15.1 µM (inactive) | GI50 [17]: 64.6 µM (inactive) | GI50 [18]: 53 µM (inactive) | GI50 [19]: 17.9 µM (inactive) | GI50 [20]: 19 µM (inactive)

CCOC(=O)/C=C(\C(=O)OCC)n1ccc(=O)n(Cc2cn(CCCCOC(C)=O)nn2)c1=O
GI50 [1]: 7.66 µM (inactive) | GI50 [2]: 10.4 µM (inactive) | GI50 [3]: 2.89 µM (inactive) | GI50 [4]: 20.5 µM (inactive) | GI50 [5]: 7.01 µM | GI50 [6]: 22.7 µM (inactive) | GI50 [7]: 16 µM (inactive) | GI50 [8]: 23.9 µM (inactive) | GI50 [9]: 13.6 µM (inactive) | GI50 [10]: 13.6 µM (inactive) | GI50 [11]: 19.9 µM (inactive) | GI50 [12]: 7.01 µM (inactive) | GI50 [13]: 17.1 µM (inactive) | GI50 [14]: 35.9 µM (inactive) | GI50 [15]: 18.8 µM (inactive) | GI50 [16]: 20.5 µM (inactive) | GI50 [17]: 32.4 µM (inactive) | GI50 [18]: > 39.7 µM (inactive) | GI50 [19]: 10.1 µM (inactive) | GI50 [20]: 6.4 µM (inactive)

COC(=O)C(Cc1ccccc1)NP(=O)(O)OCC1OC(n2cc(F)c(=O)[nH]c2=O)CC1O (stereo not given)
GI50 [1]: 4.14 µM (inactive) | GI50 [2]: > 100 µM (inactive) | GI50 [3]: 74 µM (inactive) | GI50 [4]: 9.79 µM (inactive) | GI50 [5]: > 100 µM | GI50 [6]: > 82.8 µM (inactive) | GI50 [7]: > 100 µM (inactive) | GI50 [8]: 21.3 µM (inactive) | GI50 [9]: > 33.4 µM (inactive) | GI50 [10]: 0.236 µM (active) | GI50 [11]: 5.7 µM (inactive) | GI50 [12]: 9.12 µM (inactive) | GI50 [13]: > 78.5 µM (inactive) | GI50 [14]: 3.72 µM (inactive) | GI50 [15]: > 100 µM (inactive) | GI50 [16]: 15.3 µM (inactive) | GI50 [17]: 61.4 µM (inactive) | GI50 [18]: 3.34 µM (inactive) | GI50 [19]: 2.54 µM (inactive) | GI50 [20]: > 100 µM (inactive)
